Measured values as given in ChEMBL document CHEMBL1201862, “PubChem BioAssay data set” (2004).
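Interpolation was linear, between the two tested concentrations surrounding the appropriate level; five concentrations were tested over 48 hours in 96-well plates. GI50 = concentration required for 50% inhibition of growth.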 Calls of active or inactive are those of the source. Rule as the data show it: active = GI50 up to about 1.1 µM and inactive = higher. Where a SMILES comes first, the peptide text is derived from it.

Columns and labels:
Experiment in all cases: NCI anticancer screen, dose series, 48 h
CCRF-CEM = tested on: CCRF-CEM
COLO 205 = tested on: COLO 205
EKVX = tested on: EKVX
HOP-18 = tested on: HOP-18
HOP-62 = tested on: HOP-62
HOP-92 = tested on: HOP-92
KM-20L2 = tested on: KM-20L2
M19-MEL = tested on: M19-MEL
MCF7 = tested on: MCF7
NCI-H23 = tested on: NCI-H23
NCI-H460 = tested on: NCI-H460
NCI-H522 = tested on: NCI-H522
OVCAR-4 = tested on: OVCAR-4
SF-268 = tested on: SF-268
SK-MEL-5 = tested on: SK-MEL-5
SNB-19 = tested on: SNB-19
M14 = tested on: M14
DMS-114 = tested on: DMS-114

SMILES	GI50 (CCRF-CEM)	GI50 (COLO 205)	GI50 (EKVX)	GI50 (HOP-18)	GI50 (HOP-62)	GI50 (HOP-92)	GI50 (KM-20L2)	GI50 (M19-MEL)	GI50 (MCF7)	GI50 (NCI-H23)	GI50 (NCI-H460)	GI50 (NCI-H522)	GI50 (OVCAR-4)	GI50 (SF-268)	GI50 (SK-MEL-5)	GI50 (SNB-19)	GI50 (M14)	GI50 (DMS-114)
O=C(CCN1CCOCC1)C(=Cc1ccccc1)C(=O)CCN1CCOCC1	0.796 µM (active)	2.51 µM (inactive)	2.21 µM (inactive)	16.8 µM (inactive)	21.2 µM (inactive)	2.11 µM (inactive)	9.16 µM (inactive)	2.83 µM (inactive)	3.19 µM (inactive)	2.3 µM (inactive)	12.8 µM (inactive)	1.5 µM (inactive)	5.28 µM (inactive)	6.85 µM (inactive)	7.08 µM (inactive)	14.9 µM (inactive)	–	–
CC1=C(C(=O)Nc2ccccc2)C(c2ccccc2Cl)C(C(=O)Nc2ccccc2)=C(C)N1	32 µM (inactive)	19.4 µM (inactive)	14.3 µM (inactive)	21.9 µM (inactive)	20.1 µM (inactive)	21.6 µM (inactive)	22.2 µM (inactive)	19.8 µM (inactive)	–	26.4 µM (inactive)	–	19.6 µM (inactive)	36.4 µM (inactive)	24.4 µM (inactive)	15.2 µM (inactive)	24.8 µM (inactive)	16.6 µM (inactive)	–
CN(C)c1cccc(OC(=O)NCCCl)c1	68.2 µM (inactive)	> 100 µM (inactive)	> 100 µM (inactive)	> 100 µM (inactive)	> 100 µM (inactive)	65.3 µM (inactive)	–	> 100 µM (inactive)	> 100 µM (inactive)	> 100 µM (inactive)	> 100 µM (inactive)	> 100 µM (inactive)	> 100 µM (inactive)	> 100 µM (inactive)	> 100 µM (inactive)	> 100 µM (inactive)	–	> 100 µM (inactive)
O=C1C(=O)N(c2ccc(Cl)c(Cl)c2)C(=O)C(=O)C1c1nc2ccccc2s1	38.2 µM (inactive)	> 100 µM (inactive)	> 100 µM (inactive)	21.8 µM (inactive)	> 100 µM (inactive)	9.55 µM (inactive)	> 100 µM (inactive)	> 100 µM (inactive)	–	> 100 µM (inactive)	–	> 100 µM (inactive)	> 100 µM (inactive)	> 100 µM (inactive)	> 100 µM (inactive)	44 µM (inactive)	> 100 µM (inactive)	> 100 µM (inactive)
CCOC(=O)C(Sc1ccccc1)c1c(OC)cc(=O)oc1/C=[N+](/[O-])c1ccc(N(C)C)cc1 (centres undefined)	4.52 µM (inactive)	22.4 µM (inactive)	33.3 µM (inactive)	17.1 µM (inactive)	66.4 µM (inactive)	–	31.8 µM (inactive)	19.8 µM (inactive)	–	27.5 µM (inactive)	27.9 µM (inactive)	–	26.7 µM (inactive)	31.5 µM (inactive)	20 µM (inactive)	54.8 µM (inactive)	16.2 µM (inactive)	19.4 µM (inactive)
C=C1CCC2C(C)(CO)C(O)CCC2(C)C1CC(O)/C(=C/CO)C(=O)O (centres undefined)	> 100 µM (inactive)	> 100 µM (inactive)	–	> 100 µM (inactive)	> 100 µM (inactive)	> 100 µM (inactive)	> 100 µM (inactive)	> 100 µM (inactive)	–	–	> 100 µM (inactive)	> 100 µM (inactive)	> 100 µM (inactive)	> 100 µM (inactive)	> 100 µM (inactive)	> 100 µM (inactive)	> 100 µM (inactive)	> 100 µM (inactive)
COc1ccc(C(N)=O)c(OC)c1OCc1ccccc1	> 100 µM (inactive)	> 100 µM (inactive)	> 100 µM (inactive)	–	> 100 µM (inactive)	> 100 µM (inactive)	> 100 µM (inactive)	> 100 µM (inactive)	–	9.51 µM (inactive)	> 100 µM (inactive)	12.4 µM (inactive)	> 100 µM (inactive)	> 100 µM (inactive)	> 100 µM (inactive)	> 100 µM (inactive)	> 100 µM (inactive)	> 100 µM (inactive)
O=C(O)c1cc2c(ncc3c(=O)n(-c4ccccc4)[nH]c32)s1	> 100 µM (inactive)	> 100 µM (inactive)	> 100 µM (inactive)	> 100 µM (inactive)	> 100 µM (inactive)	> 100 µM (inactive)	> 100 µM (inactive)	> 100 µM (inactive)	–	> 100 µM (inactive)	> 100 µM (inactive)	> 100 µM (inactive)	> 100 µM (inactive)	> 100 µM (inactive)	–	> 10 µM (inactive)	> 100 µM (inactive)	> 100 µM (inactive)
COc1cccc(/C=C2\CCC(C)(CN(C)C)C2=O)c1 (centres undefined)	–	60.1 µM (inactive)	46.5 µM (inactive)	> 100 µM (inactive)	> 100 µM (inactive)	> 100 µM (inactive)	23 µM (inactive)	98.2 µM (inactive)	–	> 100 µM (inactive)	> 100 µM (inactive)	30.7 µM (inactive)	98.4 µM (inactive)	> 100 µM (inactive)	69 µM (inactive)	34.4 µM (inactive)	> 100 µM (inactive)	69.3 µM (inactive)
CCOc1ccccc1NC(=O)CC1Sc2ccccc2NC1=O (centres undefined)	31.8 µM (inactive)	33.3 µM (inactive)	41.5 µM (inactive)	53.2 µM (inactive)	73.3 µM (inactive)	18.2 µM (inactive)	57.7 µM (inactive)	64.4 µM (inactive)	–	61.2 µM (inactive)	44.1 µM (inactive)	27.4 µM (inactive)	68.9 µM (inactive)	> 100 µM (inactive)	26.1 µM (inactive)	> 100 µM (inactive)	45.8 µM (inactive)	–
CC1NC(=O)CNC(=O)CNC(=O)C(Cc2ccc(O)cc2)NC(=O)C(C(C)C)NC(=O)C(C)NC1=O (centres undefined) (cyclo(GGAAVY); configuration not given here)	> 100 µM (inactive)	> 100 µM (inactive)	> 100 µM (inactive)	30.1 µM (inactive)	> 100 µM (inactive)	50.8 µM (inactive)	–	> 100 µM (inactive)	> 100 µM (inactive)	> 100 µM (inactive)	> 100 µM (inactive)	–	10.7 µM (inactive)	> 100 µM (inactive)	> 100 µM (inactive)	> 100 µM (inactive)	–	> 100 µM (inactive)
CCOc1ccc(OCC)c([P+](c2ccccc2)(c2ccccc2)c2ccccc2)c1	0.322 µM (active)	0.299 µM (active)	1.1 µM (active)	0.721 µM (active)	1.07 µM (active)	0.182 µM (active)	0.333 µM (active)	0.4 µM (active)	–	0.254 µM (active)	0.383 µM (active)	–	1.19 µM (inactive)	0.617 µM (active)	0.267 µM (active)	0.378 µM (active)	0.71 µM (active)	0.245 µM (active)
O=C(Nc1ccccc1-c1nn(CN2CCNCC2)c(=S)n(CN2CCNCC2)c1=O)C(F)(F)F	17.1 µM (inactive)	17.1 µM (inactive)	14.2 µM (inactive)	18.2 µM (inactive)	19.6 µM (inactive)	22 µM (inactive)	–	17.9 µM (inactive)	–	17.9 µM (inactive)	20.5 µM (inactive)	–	19.5 µM (inactive)	21.4 µM (inactive)	17.3 µM (inactive)	21.6 µM (inactive)	16.9 µM (inactive)	19.1 µM (inactive)
CN(C)CC1CCC/C1=N/OC(=O)c1ccccc1 (centres undefined)	> 100 µM (inactive)	> 100 µM (inactive)	–	> 100 µM (inactive)	> 100 µM (inactive)	> 100 µM (inactive)	> 100 µM (inactive)	> 100 µM (inactive)	–	> 100 µM (inactive)	> 100 µM (inactive)	> 100 µM (inactive)	> 100 µM (inactive)	> 100 µM (inactive)	> 100 µM (inactive)	–	> 100 µM (inactive)	> 100 µM (inactive)
CN(/N=N/c1[nH]cnc1C(N)=O)C1CCCCC1	55.2 µM (inactive)	> 100 µM (inactive)	> 100 µM (inactive)	–	> 100 µM (inactive)	55.1 µM (inactive)	81.3 µM (inactive)	> 100 µM (inactive)	–	> 100 µM (inactive)	> 100 µM (inactive)	> 100 µM (inactive)	55.1 µM (inactive)	> 100 µM (inactive)	> 100 µM (inactive)	> 100 µM (inactive)	72.9 µM (inactive)	> 100 µM (inactive)
C/C(=N\Nc1nnc(S)n1N)c1c(O)cc(C)oc1=O	> 100 µM (inactive)	–	> 100 µM (inactive)	> 100 µM (inactive)	> 100 µM (inactive)	> 100 µM (inactive)	> 100 µM (inactive)	> 100 µM (inactive)	–	> 100 µM (inactive)	> 100 µM (inactive)	> 100 µM (inactive)	99.3 µM (inactive)	> 100 µM (inactive)	–	> 100 µM (inactive)	> 100 µM (inactive)	–
O=C(CC1(O)C(=O)Nc2c(Cl)cccc21)c1ccccc1 (centres undefined)	> 100 µM (inactive)	> 100 µM (inactive)	> 100 µM (inactive)	> 100 µM (inactive)	> 100 µM (inactive)	> 100 µM (inactive)	> 100 µM (inactive)	–	–	> 100 µM (inactive)	> 100 µM (inactive)	> 100 µM (inactive)	60 µM (inactive)	> 100 µM (inactive)	> 100 µM (inactive)	> 100 µM (inactive)	> 100 µM (inactive)	> 100 µM (inactive)
